Reference: publication PMC7010297, “How the initiating ribosome copes with ppGpp to translate mRNAs” (PLoS Biology, 2020)
Where “and” joins values, the source holds several entries; their conditions need not be identical. Identical values can stand only once. Like-named read-outs stand apart in the source and are kept apart here.

Columns and labels:
30S-bound IF2 (30S IC) = molecular target: T1, 30S-bound IF2 (30S IC) (Escherichia coli, UniProt P0A705); test: ppGpp (or GDP) to GTP competitive assay for 30S IC formation by MST; assay type: binding
T1 construct: 6xHis (N); made in house
T1 sequence (P0A705 whole entry, looked up): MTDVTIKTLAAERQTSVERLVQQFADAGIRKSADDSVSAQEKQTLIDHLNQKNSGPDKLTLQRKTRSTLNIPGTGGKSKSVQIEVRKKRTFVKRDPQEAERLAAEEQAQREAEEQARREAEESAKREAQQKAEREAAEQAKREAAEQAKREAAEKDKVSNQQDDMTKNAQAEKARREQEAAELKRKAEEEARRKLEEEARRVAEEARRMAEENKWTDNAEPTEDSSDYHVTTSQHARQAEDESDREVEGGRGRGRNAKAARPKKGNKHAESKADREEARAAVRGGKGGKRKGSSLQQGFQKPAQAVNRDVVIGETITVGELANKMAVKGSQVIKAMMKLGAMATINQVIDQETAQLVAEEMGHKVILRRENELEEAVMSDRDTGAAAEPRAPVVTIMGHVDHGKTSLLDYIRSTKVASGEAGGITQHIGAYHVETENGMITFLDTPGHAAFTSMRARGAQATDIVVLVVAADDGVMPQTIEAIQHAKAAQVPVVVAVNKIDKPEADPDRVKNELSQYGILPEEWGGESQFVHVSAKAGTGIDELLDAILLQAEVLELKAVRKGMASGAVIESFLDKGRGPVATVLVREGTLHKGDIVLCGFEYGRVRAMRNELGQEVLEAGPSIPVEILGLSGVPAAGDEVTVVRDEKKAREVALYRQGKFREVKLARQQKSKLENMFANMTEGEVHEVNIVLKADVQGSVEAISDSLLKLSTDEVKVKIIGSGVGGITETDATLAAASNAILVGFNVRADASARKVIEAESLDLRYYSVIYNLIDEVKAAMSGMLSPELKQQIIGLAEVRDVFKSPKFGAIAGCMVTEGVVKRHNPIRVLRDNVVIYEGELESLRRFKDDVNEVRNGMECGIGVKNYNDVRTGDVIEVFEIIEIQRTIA
Experimental: MST was calculated from the respective fluorescence time dependencies (S3 Fig). […] Symbols as in (B). […] Continuous lines indicate nonlinear regression fittings with quadratic (B and E) or same-site competition (G) functions. Three measurements were performed; mean and standard deviations are plotted (S1 Data).
[…] Symbols are as indicated, 3 measurements were performed, and mean and standard deviation are plotted (S1 Data). Continuous lines show nonlinear regression fittings with a same-site inhibition model. […] (PDF) Click here for additional data file.

IF2-bound 30S IC = molecular target: T2, IF2-bound 30S IC (Escherichia coli, UniProt P0A705); test: 30S IC formation by MST, guanosine nucleotide titration; assay type: binding; conditions: for MST Average / MST Replicates (a.u.): Fig 2B (GDP/ppGpp series);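 on MST Average: lower thermophoresis signal means Bpy-tRNAi dissociation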;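 on MST Replicates (a.u.): lower thermophoresis signal means Bpy-tRNAi dissociation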
T2 construct: 6xHis (N); made in house
T2 sequence (P0A705 whole entry, looked up): as above
Summary of the method: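 Binding of fluorescently labelled initiator tRNA (Bpy-tRNAi) to E. coli 30S subunits followed by microscale thermophoresis, titrating guanosine nucleotides at constant 1 μM IF2. Dissociation constants from quadratic nonlinear fits of Ff/Fi versus ligand concentration; three measurements, mean ± SD.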

70S IC = molecular target: T3, 70S IC (Escherichia coli, UniProt P0A705); test: 70S IC formation by Bpy-tRNAi accommodation, stopped-flow; assay type: biochemical; parameters: K1, best-fit value: unit not given here; conditions: for A0, best-fit value / A1, best-fit value / K1, best-fit value / k2, best-fit value: fit Y=A0+A1*exp(-K1*x)+k2*x; for kfast (s-1) Avg: fluorescence
T3 construct: 6xHis (N); made in house
T3 sequence (P0A705 whole entry, looked up): as above
Experimental: Continuous lines indicate nonlinear regression fittings with a quadratic equation. Three measurements were performed; mean and standard deviation are plotted (S1 Data). (B) as (A) to measure the concentration dependence for each tested guanosine nucleotide at constant IF2 (1 μM). […] Continuous lines show best fits using exponential functions. (D) Formation of 70S IC as measured by Bpy-tRNAi accommodation in the P site of the ribosome; 0.1 μM 30S ICs were formed with Bpy-tRNAi and rapidly mixed with 0.3 μM 50S subunits on a stopped-flow apparatus as described in [14]. Colors are as in (C). Continuous lines show best fits using an exponential function for a single reaction step. Each stopped-flow trace results from the mean of 5 to 7 replicates.
(A) Scheme of 70S IC formation. […] Time traces were analyzed by nonlinear regression with exponential terms. […] Formation of 70S IC, as measured by Bpy-tRNAi accommodation in the absence (F) or presence of 200 μM ppGpp (G). Time traces were analyzed by nonlinear regression with one exponential term. […] Continuous lines show best fits using an exponential function for a single reaction step. All time traces are mean values of 5 to 10 replicates. Bar graphs show mean and standard errors (error bars) derived from the nonlinear regression fitting (D,E,H,I) (S1 Data).
To measure 70S pre-IC formation, a SX-20 stopped-flow instrument (Applied Photophysics, Leatherhead, UK) was set up for LS recording with an excitation wavelength of 430 nm. Scattered light was measured at an angle of 90° without a filter. Pseudo first-order conditions were approximated by using ≥3-fold excess of 50S subunits over 30S ICs; 0.2 μM 30S ICs were rapidly mixed in the instrument with 0.6 μM 50S at 25 °C. Bpy-tRNAi accommodation was measured essentially as described elsewhere. Briefly, 0.2 μM 30S ICs were formed using Bpy-tRNAi and rapidly mixed with 0.6 μM 50S at 25 °C. Fluorescence was excited at 470 nm and measured after a 495-nm longpass filter. Individual traces (6–11 traces) were averaged, and the resulting kinetic curve was approximated by single (F = A0 + A1*exp (-kapp1*t)) or double (F = A0 + A1*exp (-kapp1*t) + A2*exp (-kapp2*t)) exponential fit using Graphpad Prism 6.0 software (GraphPad, San Diego, California).

Nc1nc2c(ncn2[C@@H]2O[C@H](COP(=O)(O)OP(=O)(O)O)[C@@H](O)[C@H]2O)c(=O)[nH]1 [GDP, guanosine diphosphate]
IC50 (30S-bound IF2 (30S IC); mRNA mInfA, read-out: IC50 Average): 126 µM | IC50 (30S-bound IF2 (30S IC); mRNA mInfA, read-out: IC50 Replicates): 124 µM and 128 µM and 126 µM | IC50 (30S-bound IF2 (30S IC); mRNA mMF1, read-out: IC50 Average): 38.6 µM | IC50 (30S-bound IF2 (30S IC); mRNA mMF1, read-out: IC50 Replicates): 37.5 µM and 39.6 µM and 38.8 µM | IC50 (30S-bound IF2 (30S IC); mRNA mTufA, read-out: IC50 Average): 173 µM | IC50 (30S-bound IF2 (30S IC); mRNA mTufA, read-out: IC50 Replicates): 168 µM and 176 µM (2×) | MST Average (IF2-bound 30S IC; nucleotide 0.13 µM): 933.71 a.u. | MST Replicates (a.u.) (IF2-bound 30S IC; nucleotide 0.13 µM, constant IF2 (1 μM)): 931.66 a.u. and 934.22 a.u. and 933.66 a.u. and 935.28 a.u. | MST Average (IF2-bound 30S IC; nucleotide 0.25 µM): 934.55 a.u. | MST Replicates (a.u.) (IF2-bound 30S IC; nucleotide 0.25 µM): 933.08 a.u. and 934.64 a.u. and 934.32 a.u. and 936.15 a.u. | MST Average (IF2-bound 30S IC; nucleotide 0.50 µM): 935.70 a.u. | MST Replicates (a.u.) (IF2-bound 30S IC; nucleotide 0.50 µM): 933.41 a.u. and 935.59 a.u. and 935.81 a.u. and 937.99 a.u. | MST Average (IF2-bound 30S IC; nucleotide 1.00 µM): 937.58 a.u. | MST Replicates (a.u.) (IF2-bound 30S IC; nucleotide 1.00 µM): 936.31 a.u. and 938.31 a.u. and 936.76 a.u. and 938.95 a.u. | MST Average (IF2-bound 30S IC; nucleotide 2.00 µM): 940.10 a.u. | MST Replicates (a.u.) (IF2-bound 30S IC; nucleotide 2.00 µM): 938.98 a.u. and 940.66 a.u. and 939.47 a.u. and 941.28 a.u. | MST Average (IF2-bound 30S IC; nucleotide 4.00 µM): 942.84 a.u. | MST Replicates (a.u.) (IF2-bound 30S IC; nucleotide 4.00 µM): 941.71 a.u. and 943.61 a.u. and 942.43 a.u. and 943.60 a.u. | MST Average (IF2-bound 30S IC; nucleotide 8.00 µM): 945.64 a.u. | MST Replicates (a.u.) (IF2-bound 30S IC; nucleotide 8.00 µM): 944.41 a.u. and 946.59 a.u. and 945.06 a.u. and 946.52 a.u. | MST Average (IF2-bound 30S IC; nucleotide 16.00 µM): 952.27 a.u. | MST Replicates (a.u.) (IF2-bound 30S IC; nucleotide 16.00 µM): 951.48 a.u. and 953.11 a.u. and 951.45 a.u. and 953.06 a.u. | MST Average (IF2-bound 30S IC; nucleotide 31.00 µM): 953.23 a.u. | MST Replicates (a.u.) (IF2-bound 30S IC; nucleotide 31.00 µM): 951.79 a.u. and 954.63 a.u. and 951.76 a.u. and 954.74 a.u. | MST Average (IF2-bound 30S IC; nucleotide 62.00 µM): 952.59 a.u. | MST Replicates (a.u.) (IF2-bound 30S IC; nucleotide 62.00 µM): 952.17 a.u. and 953.16 a.u. and 951.66 a.u. and 953.37 a.u. | MST Average (IF2-bound 30S IC; nucleotide 125.00 µM): 950.10 a.u. | MST Replicates (a.u.) (IF2-bound 30S IC; nucleotide 125.00 µM): 949.56 a.u. and 950.68 a.u. and 949.29 a.u. and 950.89 a.u. | promotion of Bpy-tRNAi binding (thermophoresis) in guanosine nucleotide titration (IF2-bound 30S IC; constant IF2 (1 μM)): failed to promote Bpy-tRNAi binding at any concentration | efficiency (amplitude) of 70S IC formation (Bpy-tRNAi accommodation) (70S IC; 0.2 mM nucleotide, no GTP): reduced efficiencies | A0, best-fit value (70S IC; mInfA): 0.98 | A1, best-fit value (70S IC; mInfA): 0.0231 | K1, best-fit value (70S IC; mInfA): 1.28 | k2, best-fit value (70S IC; mInfA): -0.00069 | A0, best-fit value (70S IC; mMF1): 0.93 | A1, best-fit value (70S IC; mMF1): 0.07 | K1, best-fit value (70S IC; mMF1): 1.57 | k2, best-fit value (70S IC; mMF1): -0.00092 | Fluorescence Amplitude Avg (70S IC; mRNA mInfA): 0.023 | kfast (s-1) Avg (70S IC; mRNA mInfA): 1.28 s⁻¹ | Fluorescence Amplitude Avg (70S IC; mRNA mMF1): 0.067 | kfast (s-1) Avg (70S IC; mRNA mMF1): 1.57 s⁻¹ | Fluorescence Amplitude Avg (70S IC; mRNA mTufA): 0.062 | kfast (s-1) Avg (70S IC; mRNA mTufA): 2.65 s⁻¹ | A0, best-fit value (70S IC; mTufA): 0.94 | A1, best-fit value (70S IC; mTufA): 0.06 | K1, best-fit value (70S IC; mTufA): 2.65 | k2, best-fit value (70S IC; mTufA): -0.00072
